Experimental data as given in patent US12421253B2 (Mirati Therapeutics, Inc., priority 2020, dated 2025).

Key:
[1] = tested on: ASPC1 cells, pERK; experiment: Inhibition of KRas phosphorylation of ERK (Cisbio HTRF Advanced pERK assay); format: cell-based; settings: Homo sapiens, ASPC1, 3 h, AsPC-1 cells, read-out: Inhibition (HTRF IC50 nM) of KRas-mediated Phosphorylation of ERK, AsPC-1
Summary of the method: (§1)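 Compound effect on ERK phosphorylation is measured after 3 h exposure of cells, seeded the previous day in RPMI with 10% FBS, to ten 3-fold dilutions starting at 10 uM. Lysates are probed by HTRF for pERK, with trametinib at 0.2 uM defining the minimum signal.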

[2] = tested on: MKN1 cells, pERK; experiment: as above; format: cell-based; settings: Homo sapiens, MKN-1, 3 h, read-out: Inhibition (HTRF IC50 nM) of KRas-mediated Phosphorylation of ERK, MKN1
Summary of the method: as §1

[3] = tested on: PSN1 cells, pERK; experiment: as above; format: cell-based; settings: Homo sapiens, PSN1, 3 h, read-out: Inhibition (HTRF IC50 nM) of KRas-mediated Phosphorylation of ERK, PSN1
Summary of the method: as §1

[4] = tested on: H727 cells, pERK; experiment: as above; format: cell-based; settings: Homo sapiens, NCI-H727, 3 h, read-out: Inhibition (HTRF IC50 nM) of KRas-mediated Phosphorylation of ERK, H727
Summary of the method: as §1

[5] = tested on: H358 cells, pERK; experiment: as above; format: cell-based; settings: Homo sapiens, NCI-H358, 3 hrs, read-out: Inhibition (HTRF IC50 nM) of KRas-mediated Phosphorylation of ERK, H358
Summary of the method: as §1

[6] = tested on: HCT116 cells, pERK; experiment: as above; format: cell-based; settings: Homo sapiens, HCT-116, 3 hrs, read-out: Inhibition (HTRF IC50 nM) of KRas-mediated Phosphorylation of ERK, HCT116
Summary of the method: as §1

[7] = tested on: H460 cells, pERK; experiment: as above; format: cell-based; settings: Homo sapiens, NCI-H460, 3 hrs, read-out: Inhibition (HTRF IC50 nM) of KRas-mediated Phosphorylation of ERK, H460
Summary of the method: as §1

[8] = biological target: T1, KRas^G12V (Homo sapiens, UniProt P01116, G12V); experiment: KRas binding assay (TR-FRET displacement of Cy5 labelled tracer)
T1 construct: […]; biotin (biotinylated); purchased Accelegan Inc
Method: (§2) The ability of a compound to bind to KRas was measured using a TR-FRET displacement assay. […] After a 60-minute incubation at room temperature, the reaction was measured using a BMG LABTECH CLARIO star Plus via TR-FRET. […] The POC values were fit to a 4-parameter IC50 equation and the IC50 value reported.

[9] = biological target: T2, KRas^G12R (Homo sapiens, UniProt P01116, G12R); experiment: as above
T2 construct: […]; biotin (biotinylated); purchased Accelegan Inc
Method: as §2

[10] = biological target: T3, KRas^G12D (Homo sapiens, UniProt P01116, G12D); experiment: as above
T3 construct: […]; biotin (biotinylated); purchased Accelegan Inc
Method: as §2

[11] = tested on: A549 cells, pERK; experiment: Inhibition of KRas phosphorylation of ERK (Cisbio HTRF Advanced pERK assay); format: cell-based; settings: Homo sapiens, 3 hrs, read-out: Inhibition (HTRF IC50 nM) of KRas-mediated Phosphorylation of ERK, A549
Summary of the method: as §1

T3 sequence (P01116 1-169 isoform P01116-2 G12D): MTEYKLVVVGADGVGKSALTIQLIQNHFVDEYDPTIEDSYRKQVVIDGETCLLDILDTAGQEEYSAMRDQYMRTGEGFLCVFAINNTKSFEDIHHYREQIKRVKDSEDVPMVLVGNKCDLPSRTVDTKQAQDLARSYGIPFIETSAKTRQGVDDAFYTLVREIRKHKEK
T2 sequence (P01116 1-169 isoform P01116-2 G12R): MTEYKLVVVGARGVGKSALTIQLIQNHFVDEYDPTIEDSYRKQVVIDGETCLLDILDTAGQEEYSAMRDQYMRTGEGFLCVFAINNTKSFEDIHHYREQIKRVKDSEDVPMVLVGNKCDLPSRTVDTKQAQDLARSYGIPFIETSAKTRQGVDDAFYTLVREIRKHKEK
T1 sequence (P01116 1-169 isoform P01116-2 G12V): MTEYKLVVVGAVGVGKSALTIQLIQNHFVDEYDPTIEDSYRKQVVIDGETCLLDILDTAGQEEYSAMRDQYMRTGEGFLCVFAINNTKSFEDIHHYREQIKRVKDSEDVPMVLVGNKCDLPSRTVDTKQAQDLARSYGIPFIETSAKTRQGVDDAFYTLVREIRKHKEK

With CCc1c(F)ccc2cc(O)cc(N3CCc4c(nc(OC[C@@]56CCCN5C[C@H](F)C6)nc4N4CCCn5nc(C(=O)N6CCOCC6)cc5C4)C3)c12 [Example 193, (5-(7-(8-ethyl-7-fluoro-3-hydroxynaphthalen-1-yl)-2-(((2R,7aS)-2-fluorohexahydro-1H-pyrrolizin-7a-yl)methoxy)-5,6,7,8-tetrahydropyrido[3,4-d]pyrimidin-4-yl)-5,6,7,8-tetrahydro-4H-pyrazolo[1,5-a][1,4]diazepin-2-yl)(morpholino)methanone] the IC50 [1] was 3 nM, the IC50 [2] was 4 nM and the IC50 [3] was 2100 nM. The IC50 [4] was 5 nM, the IC50 [5] was 2 nM and the IC50 [6] was 74 nM. It also gave an IC50 [7] of 38 nM, an IC50 [8] of no more than 2 nM and an IC50 [9] of no more than 2 nM. The IC50 [10] was no more than 2 nM.

Compound CCc1c(F)ccc2cc(O)cc(N3CCc4c(nc(OC[C@@]56CCCN5C[C@H](F)C6)nc4N4CCCn5nc(C(=O)N(C)C)cc5C4)C3)c12 [Example 66, 5-(7-(8-ethyl-7-fluoro-3-hydroxynaphthalen-1-yl)-2-(((2R,7aS)-2-fluorohexahydro-1H-pyrrolizin-7a-yl)methoxy)-5,6,7,8-tetrahydropyrido[3,4-d]pyrimidin-4-yl)-N,N-dimethyl-5,6,7,8-tetrahydro-4H-pyrazolo[1,5-a][1,4]diazepine-2-carboxamide] has an IC50 [1] of 1 nM, an IC50 [2] of 1 nM and an IC50 [4] of 5 nM. The IC50 [11] was 5 nM, the IC50 [5] was 2 nM and the IC50 [6] was 62 nM. The IC50 [7] was 36 nM, the IC50 [8] was no more than 2 nM and the IC50 [9] was no more than 2 nM. For the same compound, the IC50 [10] was no more than 2 nM.

O=C1NC(=O)C2CN(c3nc(OC[C@@]45CCCN4C[C@H](F)C5)nc4c3CCN(c3cc(O)cc5ccc(F)c(Br)c35)C4)CC12 (stereo partly drawn) [Example 226, 5-(7-(8-bromo-7-fluoro-3-hydroxynaphthalen-1-yl)-2-(((2R,7aS)-2-fluorohexahydro-1H-pyrrolizin-7a-yl)methoxy)-5,6,7,8-tetrahydropyrido[3,4-d]pyrimidin-4-yl)tetrahydropyrrolo[3,4-c]pyrrole-1,3(2H,3aH)-dione] gave an IC50 [1] of 45 nM, an IC50 [2] of 7 nM and an IC50 [3] of 2790 nM. For the same compound, the IC50 [4] was 43 nM, the IC50 [5] was 22 nM and the IC50 [7] was 169 nM. The IC50 [8] was no more than 2 nM, the IC50 [9] was no more than 2 nM and the IC50 [10] was no more than 2 nM.

CCc1c(F)ccc2cc(O)cc(N3CCc4c(nc(OC[C@@]56CCCN5C[C@H](F)C6)nc4N4CCCn5nc(C(=O)N(C)C)c(F)c5C4)C3)c12 [Example 190, 5-(7-(8-ethyl-7-fluoro-3-hydroxynaphthalen-1-yl)-2-(((2R,7aS)-2-fluorotetrahydro-1H-pyrrolizin-7a(5H)-yl)methoxy)-5,6,7,8-tetrahydropyrido[3,4-d]pyrimidin-4-yl)-3-fluoro-N,N-dimethyl-5,6,7,8-tetrahydro-4H-pyrazolo[1,5-a][1,4]diazepine-2-carboxamide] showed an IC50 [1] of 2 nM, an IC50 [2] of 6 nM and an IC50 [3] of 5450 nM. For the same compound, the IC50 [4] was 6 nM, the IC50 [5] was 3 nM and the IC50 [7] was 49 nM. The IC50 [8] was no more than 2 nM, the IC50 [9] was no more than 2 nM and the IC50 [10] was no more than 2 nM.

O=S1(=O)NCC2(CCCN(c3nc(OC[C@@]45CCCN4C[C@H](F)C5)nc4c3CCN(c3cc(O)cc5ccc(F)c(Br)c35)C4)C2)N1 (stereo partly drawn) [Example 225, 7-(7-(8-bromo-7-fluoro-3-hydroxynaphthalen-1-yl)-2-(((2R,7aS)-2-fluorohexahydro-1H-pyrrolizin-7a-yl)methoxy)-5,6,7,8-tetrahydropyrido[3,4-d]pyrimidin-4-yl)-2-thia-1,3,7-triazaspiro[4.5]decane 2,2-dioxide] showed an IC50 [1] of 23 nM, an IC50 [2] of 3 nM and an IC50 [3] of 328 nM. The IC50 [4] was 82 nM, the IC50 [5] was 9 nM and the IC50 [6] was 158 nM. For the same compound, the IC50 [7] was 56 nM, the IC50 [8] was no more than 2 nM and the IC50 [9] was no more than 2 nM. For the same compound, the IC50 [10] was no more than 2 nM.
